Consider twelve molecules from US6262073A, “Pharmaceutical methods of use of 5-substituted and 5,5 disubstituted-3,4-dihydroxy-2(5H)-furanones” (Oxis International Inc., priority 2000, dated 2001).

The target in test [1] is T1, Cyclooxygenase-1 (cyclooxygenase from ram seminal vesicles) (Ovis aries, UniProt P05979).
T1 construct: cyclooxygenase from ram seminal vesicles; from tissue; host or cells: ram seminal vesicles
T1 sequence (P05979 25-600): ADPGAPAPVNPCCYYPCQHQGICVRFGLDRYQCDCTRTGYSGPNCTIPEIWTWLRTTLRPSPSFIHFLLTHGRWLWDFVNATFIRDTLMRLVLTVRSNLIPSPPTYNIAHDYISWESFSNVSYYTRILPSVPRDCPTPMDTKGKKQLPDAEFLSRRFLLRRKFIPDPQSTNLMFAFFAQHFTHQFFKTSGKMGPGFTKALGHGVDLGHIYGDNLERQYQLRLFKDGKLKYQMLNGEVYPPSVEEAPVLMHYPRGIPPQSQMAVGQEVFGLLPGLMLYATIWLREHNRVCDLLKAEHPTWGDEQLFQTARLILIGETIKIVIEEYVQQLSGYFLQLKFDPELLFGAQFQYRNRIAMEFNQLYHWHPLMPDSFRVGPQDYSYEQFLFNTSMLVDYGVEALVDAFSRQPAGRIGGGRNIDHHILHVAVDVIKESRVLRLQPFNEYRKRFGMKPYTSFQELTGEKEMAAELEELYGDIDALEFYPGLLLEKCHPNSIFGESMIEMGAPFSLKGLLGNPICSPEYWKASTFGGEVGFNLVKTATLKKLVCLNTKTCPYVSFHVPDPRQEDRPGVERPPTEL
Description: Cyclooxygenase-1 screen (COX-1). To be noted: 300 μM. Format: biochemical. As to the method: (§1) The compounds of the invention were screened for their anti-inflammatory activity using a series of in vitro tests the details of which are given below. The activity of various compounds against 5-lipoxygenase, cycloxygenase-1, cycloxygenase-2 and lipid peroxidase was evaluated. Results of the screening procedures are included in TABLE I, and the activity against 5-lipoxygenase at a test concentration of 1 μM in Table II.
Cyclooxygenase-1 is involved in the formation of prostaglandins and thromboxane via the oxidative metabolism of arachidonic acid. Briefly, cyclooxygenase from ram seminal vesicles is incubated with arachidonic acid (100 μm) for 2 minutes at 37° C. in the presence or absence of test compounds according to the methods of A. T. Evans et al., Biochem. Pharm. 36:2035-2037(1987) and R. Boopathy et al., Biochem J. 239:371-377 (1968). The assay is terminated by the addition of trichioroacetic acid and cyclooxygenase activity is determined by reading the absorbance at 530 nm. […]

Test [2] concerns the target T2, Cyclooxygenase-2 (prostaglandin H synthetase-2) from sheep placenta (Ovis aries, UniProt P79208).
T2 construct: cyclooxygenase-2 from sheep placenta; from tissue; host or cells: sheep placenta
T2 sequence (P79208 17-603): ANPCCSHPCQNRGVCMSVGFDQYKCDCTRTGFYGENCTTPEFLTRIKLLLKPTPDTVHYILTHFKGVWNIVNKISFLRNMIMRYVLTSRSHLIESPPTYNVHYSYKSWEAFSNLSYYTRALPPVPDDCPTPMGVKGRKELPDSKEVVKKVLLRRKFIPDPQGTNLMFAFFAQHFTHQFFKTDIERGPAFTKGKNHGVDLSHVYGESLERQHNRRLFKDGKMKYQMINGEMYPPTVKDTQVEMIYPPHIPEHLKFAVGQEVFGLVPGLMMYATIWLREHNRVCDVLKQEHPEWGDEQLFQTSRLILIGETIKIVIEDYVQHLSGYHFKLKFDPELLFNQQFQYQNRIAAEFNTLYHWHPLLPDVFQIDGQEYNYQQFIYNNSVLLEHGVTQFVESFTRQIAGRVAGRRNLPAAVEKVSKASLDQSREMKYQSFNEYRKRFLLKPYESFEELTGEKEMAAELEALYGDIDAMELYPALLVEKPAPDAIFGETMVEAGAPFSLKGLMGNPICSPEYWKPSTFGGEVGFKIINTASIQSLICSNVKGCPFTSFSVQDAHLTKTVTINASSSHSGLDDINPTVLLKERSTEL
Description: Cyclooxygenase-2 screen (COX-2). Format: biochemical. To be noted: read-out: COX-2 percent inhibition. On the procedure: as §1
Cyclooxygenase-2, also known as prostaglandin H synthetase-2, catalyzes the rate- limiting step in the synthesis of inflammatory prostaglandins. In this reaction cyclooxygenase-2 catalyzes the oxygenation of unesterified precursors to form cyclic endoperoxide derivatives, including prostaglandin H. Briefly, cyclooxygenase-2 from sheep placenta, 14 μg/assay tube, is incubated with arachidonic acid (500 μM) for 1.5 minutes at 27° C. in the absence or presence of test compounds according to the methods of A. T. Evans, et al., Biochem Pharm. […] Res. Comm. […] Compounds are screened at 300 μM.

In test [3] the target is T3, 5-Lipoxygenase (crude enzyme preparation from rat basophilic leukemia cells, RBL-1) (Rattus norvegicus, UniProt P12527).
T3 construct: crude enzyme preparation from rat basophilic leukemia cells (RBL-1); endogenous in cells; host or cells: rat basophilic leukemia cells (RBL-1)
T3 sequence (P12527 1-673): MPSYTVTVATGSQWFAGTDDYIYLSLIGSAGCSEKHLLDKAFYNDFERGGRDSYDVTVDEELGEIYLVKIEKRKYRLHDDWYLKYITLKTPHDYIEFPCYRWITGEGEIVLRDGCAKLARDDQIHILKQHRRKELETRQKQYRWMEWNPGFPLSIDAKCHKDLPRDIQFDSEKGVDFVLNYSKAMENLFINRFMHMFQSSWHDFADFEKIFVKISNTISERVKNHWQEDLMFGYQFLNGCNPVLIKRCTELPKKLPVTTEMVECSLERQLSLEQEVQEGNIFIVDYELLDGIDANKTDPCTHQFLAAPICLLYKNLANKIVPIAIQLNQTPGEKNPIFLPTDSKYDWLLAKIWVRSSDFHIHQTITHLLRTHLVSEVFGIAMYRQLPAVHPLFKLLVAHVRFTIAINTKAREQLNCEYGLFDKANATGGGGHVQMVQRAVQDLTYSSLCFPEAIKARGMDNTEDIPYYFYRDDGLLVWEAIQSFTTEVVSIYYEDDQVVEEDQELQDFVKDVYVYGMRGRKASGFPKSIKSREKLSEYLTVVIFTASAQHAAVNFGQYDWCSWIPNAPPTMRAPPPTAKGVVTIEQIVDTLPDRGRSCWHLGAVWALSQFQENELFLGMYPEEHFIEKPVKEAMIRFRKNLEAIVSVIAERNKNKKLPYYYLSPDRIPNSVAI
Kind of test: 5-Lipoxygenase screen (5-LO), 5-HETE by RIA. Particulars: for inhibition at 30 µM: read-out: 5-LO percent inhibition; for inhibition at 1 µM: read-out: Percent inhibition of 5-LO. Format: biochemical. As to the method: as §1
5-Lipoxygenase catalyzes the oxidative metabolism of arachidonic acid to […] (5-HETE), the initial reaction leading to the formation of the leukotrienes. Briefly, the testing procedure utilizes a crude enzyme preparation from rat basophilic leukemia cells (RBL-1) according to the methods of T. Shimuzu et al. Pro. […] Test compounds are pre-incubated with the enzyme preparation for 5 minutes at room temperature and the reaction is initiated by the addition of arachidonic acid. Following an 8 minute incubation at room temperature, the reaction is terminated by the addition of citric acid and concentrations of 5-HETE are determined by RIA. Compounds are screened at 30 μM.

Test [4] deals with Lipid peroxidation (rat liver microsomes). Description: Lipid peroxidation screen (LPO), CCl4-induced, liver microsomes. Format: biochemical. To be noted: 300 μM. On the procedure: as §1
Lipid peroxidation is a consequence of various stimuli, including reactive free radicals. Polyunsaturated fatty acids associated with plasma membranes are degraded due to enzymatic induction by reactive agents such as CCl4, leading to cellular damage. Briefly, microsomes are prepared from rat livers and the protein concentration is determined according to the method of D. Mansuy et al., Biochem. Biophys. Res. Comm. 135:1015-1021(1986). A reaction mixture consisting of 2 mg of the microsomal preparation, an NADPH generating system, 20 mM CCl4 and test compound are incubated for 12 minutes at 37° C. The reaction is terminated by the addition of a mixture of thiobarbituric acid and trichloroacetic acid. The absorbance is read at 535 nm and is proportional to the concentration of malondialdehyde. Compounds are screened at 300 μM.

Test [5] deals with Nuclear Factor-kappa B (NF-κB). Kind of test: NF-κB lacZ (κB-Z) reporter assay in transfected Jurkat cells stimulated with A23187 and PMA. Format: cell-based, human. On the procedure: The human T lymphoid cell line Jurkat was transfected with a response element lacZ reporter in which transcription of the β-galactosidase gene is directed by the binding site for the NF-κB transcription factor. […] At the end of the incubation, the cells are spun down and resuspended in the buffer and FDG (fluorescein di-β-D-galactopyranoside) solution. The covered plates are further incubated in the dark for 16 hours at 25° C. […] Compounds were screened at 10 μM.
On the technique in general: A reporter such as luciferase makes a cellular process visible.

The inhibition is the change of the read-out against control, counted positive when it falls. Regarding `CC1(c2ccc(-c3ccccc3)cc2)OC(=O)C(O)=C1O` (racemic) [Example 2, 5-[(1,1'-Biphenyl)-4-yl]-3,4-dihydroxy-5-methyl-2(5H)-furanone], the COX-1 percent inhibition in test [1] worked out at 33%. Further, the inhibition at 300 µM in test [2] was 22%. In addition, the inhibition at 30 µM in test [3] amounted to 107%. Besides, in test [3] (test conc. 1 μM (Table II)), the inhibition at 1 µM was 15%. In test [4], the LPO percent inhibition amounted to 78%. For the same molecule, in test [5] (Homo sapiens, 10 μM, κB-Z Jurkat cells, A23187 and PMA (Table III), read-out: NF-κB percent inhibition), the inhibition at 10 µM is 90%.
For the molecule `O=C1OC(CCSc2ccc3ccccc3c2)C(O)=C1O` (stereo not drawn) [Example 26, 3,4-Dihydroxy-5-[2-(naphthyl-2-thio)ethyl]-2(5H)-furanone], in test [1], the COX-1 percent inhibition is 12%. The inhibition at 300 µM in test [2] is 12%. For the same molecule, the inhibition at 30 µM in test [3] was found to be 101%. Further, the inhibition at 1 µM in test [3] (test conc. 1 μM (Table II)) is 54%. Further, in test [4], the LPO percent inhibition amounted to 77%.
Consider `O=C1OC(CCC#Cc2ccccc2)C(O)=C1O` (stereo not drawn) [Example 27, 3,4-Dihydroxy-5-[(4-phenyl)-3-butynyl]-2(5H)-furanone], for which the COX-1 percent inhibition in test [1] was 5%. Besides, the inhibition at 300 µM in test [2] came out at 20%. The inhibition at 30 µM in test [3] was determined as 42%. The LPO percent inhibition in test [4] turned out to be 59%.
Take `Cc1ccccc1C#CCCC1OC(=O)C(O)=C1O` (stereo not drawn) [Example 28, 3,4-Dihydroxy-5-[(4-(2-methyl)phenyl)-3-butynyl]-2(5H)-furanone]: the COX-1 percent inhibition in test [1] amounted to 4%. Also, in test [2], the inhibition at 300 µM was 15%. The inhibition at 30 µM in test [3] was determined as 58%. In test [4], the LPO percent inhibition is 61%.
`CCC/C=C\Cc1ccccc1C#CCCC1OC(=O)C(O)=C1O` (stereo not drawn) [Example 29] showed a COX-1 percent inhibition in test [1] of 55%. Also, the inhibition at 300 µM in test [2] was 26%. Also, the inhibition at 30 µM in test [3] was determined as 81%. The inhibition at 1 µM in test [3] (test conc. 1 μM (Table II)) turned out to be 56%. The LPO percent inhibition in test [4] came to 72%.
Consider `O=C1OC(CCC#Cc2ccccc2CSc2ccccc2)C(O)=C1O` (stereo not drawn) [Example 30, 3,4-Dihydroxy-5-[(4-(2-(phenylthio)methyl)phenyl)-3-butynyl]-2(5H)-furanone], for which the COX-1 percent inhibition in test [1] was 26%. The inhibition at 300 µM in test [2] came out at 16%. Further, the inhibition at 30 µM in test [3] stood at 100%. Moreover, the inhibition at 1 µM in test [3] (test conc. 1 μM (Table II)) turned out to be 70%. For the same molecule, the LPO percent inhibition in test [4] was found to be 62%.
Consider `CCCCNS(=O)(=O)c1ccccc1C#CCCC1OC(=O)C(O)=C1O` (stereo not drawn) [Example 31], for which the COX-1 percent inhibition in test [1] was found to be 37%. Also, in test [2], the inhibition at 300 µM is 23%. In test [3], the inhibition at 30 µM amounted to 81%. In addition, the LPO percent inhibition in test [4] was 73%.
For `CCCSCc1ccccc1C#CCCC1OC(=O)C(O)=C1O` (stereo not drawn) [Example 33, 3,4-Dihydroxy-5-[(4-(2-(propylthio)methyl)phenyl)-3-butynyl]-2(5H)-furanone], in that order: 37%, 20%, 84% and 74%.
In the same order, the values of `CCCCCSCc1ccccc1C#CCCC1OC(=O)C(O)=C1O` (stereo not drawn) [Example 34, 3,4-Dihydroxy-5-[(4-(2-(1-pentylthio)methyl)phenyl)-3-butynyl]-2(5H)-furanone] are 67%, 43%, 92% and 63%.
For the molecule `CCCS(=O)(=O)Cc1ccccc1C#CCCC1OC(=O)C(O)=C1O` (stereo not drawn) [Example 35, 3,4-Dihydroxy-5-[(4-(2-(propylsulfonyl)methyl)phenyl)-3-butynyl]-2(5H)-furanone], the COX-1 percent inhibition in test [1] turned out to be 25%. Further, in test [2], the inhibition at 300 µM was determined as 13%. The inhibition at 30 µM in test [3] amounted to 30%. The LPO percent inhibition in test [4] is given as 60%.
Broadly, the IC50 is the concentration that gives 50% inhibition. Higher therefore signals weaker potency. `O=C1OC(CCC#Cc2cc(Cc3ccc(F)cc3)cs2)C(O)=C1O` (stereo not drawn) [Example 36, 3,4-Dihydroxy-5-[2-(4-(4-fluorophenylmethyl)thiophene)-(3-butynyl)]-2(5H)-furanone] registered a 5-LO percent inhibition in test [3] (Table I cell printed "@1" instead of the 30 μM of the head) of 85%. The IC50 in test [3] (Table II) amounted to 0.16 µM; in test [5] (Table III), 6 µM. The “Percent inhibition of 5-LO” value in test [3] (test conc. 1 μM (Table II)) was found to be 91%. In addition, the NF-κB percent inhibition in test [5] (10 μM, κB-Z Jurkat cells, A23187 and PMA (Table III)) is reported as 61%.
On to `CCC/C=C\Cc1ccccc1/C=C\CCC1OC(=O)C(O)=C1O` (stereo not drawn) [Example 40], for which the COX-1 percent inhibition in test [1] amounted to 38%. Besides, the inhibition at 300 µM in test [2] came to 25%. Besides, in test [3], the inhibition at 30 µM is 99%. In test [4], this molecule came in with an LPO percent inhibition of 65%.
